Assay results taken from patent US11731964B2, “Benzamide antibacterial agents” (Purdue Research Foundation, priority 2018, dated 2023).
Values after ≈ are worked out from the molar mass of the structure shown.

Legend:
[1] = tested on: VISA NRS1; assay: MIC and MBC; format: cell-based, S. aureus; conditions: Staphylococcus aureus, VISA NRS1
Procedure: (§1) Bacteria were cultured in cation-adjusted Mueller Hinton Broth (for strains in Tables 1 and 4) or Brain Heart Infusion broth (for Enterococcus faecium) or Tryptic Soy Broth (all other bacteria) in a 96-well plate at 37° C. for at least 20 hours. The MIC was classified as the lowest concentration where no visual growth of bacteria was observed. The minimum bactericidal concentration (MBC) was tested by spotting 4 μL from wells with no growth onto Tryptic Soy Agar (TSA) plates. Plates were incubated at 37° C. for at least 18 hours before recording the MBC.

[2] = tested on: VRSA VRS12; assay: MIC and MBC; format: cell-based, S. aureus; conditions: Staphylococcus aureus, VRSA VRS12
Procedure: as §1

[3] = tested on: human colorectal (Caco-2) cells; assay: Toxicity profile, MTS viability assay; format: cell-based; conditions: 24 hours, tested 2 to 256 μg/mL
Procedure: (§2) Compound F6 was assayed (at concentrations ranging from 2 μg/mL to 256 μg/mL) against murine macrophage (J774) and human colorectal (Caco-2) epithelial cell lines to determine the potential toxic effect to mammalian cells in vitro. Caco-2 cells were cultured in Dulbecco's Modified Eagle Medium (DMEM) supplemented with 20% fetal bovine serum (FBS), non-essential amino acids (1×), and penicillin-streptomycin at 37° C. with CO2 (5%). J774 cells were cultured in DMEM supplemented with 10% FBS. Upon reaching 85-90% confluency, cells were transferred to all wells of a 96-well tissue-culture treated plate. The cells were incubated in serum-free medium with the compounds (in triplicate) at 37° C. with CO2 (5%) for 24 hours. Cells exposed to equivalent concentrations of DMSO served as the negative control. The assay reagent MTS 3-(4,5-dimethylthiazol-2-yl)-5-(3-carboxymethoxyphenyl)-2-(4-sulfophenyl)-2H-tetrazolium) (Promega, Madison, Wis., USA) was subsequently added and the plate was incubated for four hours. Absorbance readings (at OD490) were taken using a kinetic microplate reader (Molecular Devices, Sunnyvale, Calif., USA). The quantity of viable cells after treatment with each compound was expressed as a percentage of the viability of DMSO-treated control cells (average of triplicate wells±standard deviation). The toxicity data were analyzed via a two-way ANOVA, with post hoc Sidak's multiple comparisons test (P<0.05), utilizing GraphPad Prism 6.0 (GraphPad Software, La Jolla, Calif., USA).

[4] = tested on: murine macrophage (J774) cells; assay: Toxicity profile, MTS viability assay; format: cell-based
Procedure: as §2

[5] = tested on: MRSA USA400 (NRS123); format: cell-based, Staphylococcus aureus
From the text: Resistance was classified as a greater than four-fold increase in the initial MIC, as reported elsewhere^30 (Farrell D J, Robbins M, Rhys-Williams W, Love W G. Investigation of the potential for mutational resistance to XF-73, retapamulin, mupirocin, fusidic acid, daptomycin, and vancomycin in methicillin-resistant Staphylococcus aureus isolates during a 55-passage study. Antimicrob Agents Chemother. 2011; 55(3):1177-81).

CC1CC(C)CN(S(=O)(=O)c2ccc(C(=O)Nc3nnc(-c4cccs4)o3)cc2)C1 (stereo not shown) [Compound F6]
MBC ([1]; read-out: MBC): > 128 µg/mL | MIC ([1]; read-out: MIC): 2 µg/mL (≈ 4.48 µM) | MBC ([2]; read-out: MBC): > 128 µg/mL | MIC ([2]; read-out: MIC): 2 µg/mL (≈ 4.48 µM) | concentration up to which non-toxic [3]: up to 128 μg/mL | concentration up to which non-toxic ([4]; J774 cells, 24 hours, tested 2 to 256 μg/mL): up to 128 μg/mL | non-toxic concentration, fold higher than the MIC of F6 against MRSA ([4]; mouse and human, 24 h): 63 fold | increase in MIC after the tenth passage ([5]; MRSA USA400): one-fold increase | increase in MIC by the 14th passage from the original MIC ([5]; MRSA USA400): no additional increase in MIC | change in MIC over nine passages ([5]; MRSA USA400, passages 1-9): remained unchanged
